Test [1] has as its system LDLR null mice. The test can be described thus: Plasma lipid levels (total cholesterol, triglycerides, HDL-cholesterol) in LDLR null mice fed Western diet for two weeks. In kind it is in vivo, mouse. The protocol: Res. Per. 3: e00154; Chattopadhyay et al. (2016) J. Lipid Res. 57: 832-847; PCT Pub. Nos: WO 2013/148214 (PCT/US2013/031037), WO 2015/175968 (PCT/US2015/031134)) (Tg6F), or the mice were fed WD with Ezetimibe added to give a daily dose of 10 mg/kg body weight/day (WD+Ezetimibe), or the mice were fed WD with Tg6F added at 0.06% by weight plus Ezetimibe (each added separately to the diet) to give a daily dose of Ezetimibe of 10 mg/kg body weight; the Tg6F and Ezetimibe were mixed into WD as described previously (Chattopadhyay et al. (2016) J. Lipid. Res. 57: 832-847) (Combined Formulation), or the mice were fed WD to which was added ezetimibe-associated transgenic 6F peptide (Ez-tg6F) at 0.06% Tg6F by weight containing sufficient Ezetimibe to give a daily dose of 10 mg/kg body weight/day that was prepared as described herein. Specifically, the ezetimibe-associated Tg6F peptide (Ez-Tg6F) was made by adding the ezetimibe directly to a solution of ethyl acetate 5% acetic acid that had been incubated overnight at room temperature with freeze-dried tomato powder obtained from transgenic tomatoes expressing the 6F peptide, and which had been removed to a separate vessel as described previously (see, e.g., Chattopadhyay et al. (2015) Pharma. Res. Per. 3: e00154; Chattopadhyay et al. (2016) J. Lipid. Res. 57: 832-847) prior to addition of the ezetimibe. After the addition of the ezetimibe, the solution was incubated at room temperature with gentle mixing for two hours prior to processing and addition of the resulting freeze-dried powder to WD as previously described (Chattopadhyay et al. (2016) J. Lipid. Res. 57: 832-847). After feeding the diets for two weeks, the mice were bled and total plasma cholesterol levels were determined as described (Id.). NS=Not Significant.
LDLR-null mice originally purchased from Jackson Laboratories on a C57BL/6J background were obtained from the breeding colony of the Department of Laboratory and Animal Medicine at the David Geffen School of Medicine at UCLA. The gender and age of the mice are stated in the legend to each figure. The mice were maintained on standard mouse chow (Ralston Purina) before being switched to a Western diet WD (Teklad, Harlan, catalog #TD88137).
In experiments in which Tg6F or EV or Ezetimibe were administered as single agents, the EV or Tg6F concentrate was added to WD at 0.06% by weight or Ezetimibe was added to WD to give a final dose of 10 mg/kg body weight/day. The EV or Tg6F concentrate or Ezetimibe was mixed into the diets as described (Chattopadhyay et al. (2015) Pharma. Res. Per. 3: e00154). […]

For test [2], the system named is LDLR null mice. The test can be described thus: Plasma lysophosphatidylcholine (LysoPC) levels in LDLR null mice fed Western diet for two weeks. Format: in vivo, mouse. Conditions: female LDLR null mice age 4-7 months, WD two weeks, Tg6F 0.06% by weight, Ezetimibe 10 mg/kg/day. The protocol: After feeding the diets for two weeks the mice were bled and plasma lipid levels, plasma levels of lysophosphatidylcholine (LysoPC), and plasma levels of Serum Amyloid A (SAA) were determined as described in Example 3 Methods. Panel A) Plasma total cholesterol levels. Panel B) The decrease in plasma cholesterol compared to WD for each treatment. Panel C) Plasma triglyceride levels. Panel D) The decrease in plasma triglycerides compared to WD for each treatment. Panel E) Plasma HDL-Cholesterol levels. Panel F) The Increase in plasma HDL-Cholesterol compared to WD for each treatment. Panel G) Plasma LysoPC 18:0 levels. Panel H) The decrease in plasma LysoPC 18:0 levels compared to WD for each treatment. Panel I) Plasma LysoPC 18:1 levels. Panel J) The decrease in plasma LysoPC 18:1 levels compared to WD for each treatment. Panel K) Plasma LysoPC 20:4 levels. Panel L) The decrease in plasma LysoPC 20:4 levels compared to WD for each treatment. Panel M) Plasma SAA levels. Panel N) The decrease in plasma SAA levels compared to WD for each treatment. The data shown are Mean±SEM. NS=Not significant.
In experiments in which Tg6F or EV or Ezetimibe were administered as single agents, the EV or Tg6F concentrate was added to WD at 0.06% by weight or Ezetimibe was added to WD to give a final dose of 10 mg/kg body weight/day. The EV or Tg6F concentrate or Ezetimibe was mixed into the diets as described (Chattopadhyay et al. (2015) Pharma. Res. Per. 3: e00154). In experiments in which the EV or Tg6F concentrates and Ezetimibe were both added to WD, each was added separately to WD at the same dose as used for the single agents, and each was mixed into the diet as described (Id.). […]
Plasma lipids, and serum amyloid A (SAA) levels were determined and LC-MS/MS was performed as described (Navab et al. (2012) J. Lipid Res. 53: 437-446; Chattopadhyay et al. (2016) J. Lipid Res. 57: 832-847; Chattopadhyay et al. (2015) Pharma. Res. Per. 3: e00154). […]

The subject of a further test is cholesterol-fed monkeys. The settings on record: cited from earlier work.

Molecules are shown by their SMILES. Entries after “also recorded” stand apart in the source; their conditions may differ.

Take `O=C1[C@H](CC[C@H](O)c2ccc(F)cc2)[C@@H](c2ccc(O)cc2)N1c1ccc(F)cc1` [Ezetimibe, (3R,4S)-1-(4-fluorophenyl)-3-[(3S)-3-(4-fluorophenyl)-3-hydroxypropyl]-4-(4-hydroxyphenyl)azetidin-2-one]: the “dyslipidemia (plasma total cholesterol, triglycerides, HDL-Cholesterol)” value in the test with LDLR null mice [1] (female LDLR null mice age 3-6 months, n=20-28 per group, WD two weeks, Tg6F 0.06% by weight, Ezetimibe 10 mg/kg/day, FIG. 15) is recorded as “significantly ameliorated dyslipidemia”. Besides, the plasma triglyceride levels result in the test with LDLR null mice [1] (statement over the experiments of Example 3 (single agents five out of five, Combined Formulation five out of five, Novel Method three out three experiments)) was “equally effective; also recorded: improved plasma total cholesterol and triglyceride levels”. For the same molecule, the “plasma total cholesterol levels” value with LDLR null mice [1] (statement over the experiments of Example 3 (single agents five out of five, Combined Formulation four out of five, Novel Method three out three experiments)) is “equally effective; also recorded: improved plasma total cholesterol and triglyceride levels”. For the same molecule, the “plasma HDL-cholesterol levels” value with LDLR null mice [1] (statement over the experiments of Example 3 (single agents four out of four, Combined Formulation four out of four, Novel Method two out of two experiments)) is on record as “equally effective; also recorded: significantly increased the levels”. In the test on LDLR null mice [2] (FIG. 16 G-H), the “plasma LysoPC 18:0 levels” value was “failed to significantly alter plasma levels of LysoPC 18:0”. The “plasma LysoPC 18:1 levels” value in the test on LDLR null mice [2] (FIG. 16 I-J) is on record as “significantly decreased plasma levels of LysoPC 18:1”. For the same molecule, the “plasma LysoPC 20:4 levels” value in the test on LDLR null mice [2] (FIG. 16 K-L) is “significantly reduced plasma levels of LysoPC 20:4”. Besides, in the test with cholesterol-fed monkeys, the “ED50 value (median effective dose) for inhibiting the rise in plasma cholesterol levels” value was 0.5 µg/kg/day.
